Assays:
[1] = In vitro iontophoretic delivery of MTX through hairless (nude) rat skin, Franz diffusion cells; format: in vitro ADME
Method: The delivery of MTX under 30 mins of iontophoresis (0.4 mA/cm^2) was studied at buffer strengths 0.05-0.5 M and drug concentrations 10-20 mg/ml. The effect of current density and time of application on the delivery of MTX is studied by optimizing the full-factorial design. The current density (X1) and time of application (X2) are the independent factors chosen for the factorial design with 4 and 5 levels, respectively in the range of 0.05-0.5 mA (X1) and 10-120 mins (X2).
In vitro iontophoretic experiments (n≧3) were performed using freshly excised hairless rat skin mounted on vertical Franz diffusion cells with stratum corneum facing towards the donor chamber. The donor compartment contained 15 mg/ml of MTX in phosphate buffer of pH 7.4 (0.25 M) and the receptor compartment contained phosphate buffer of pH 7.4 (0.25 M) with 75 mM NaCl.
A silver-silver chloride electrode (cathode) was placed in the donor chamber and silver wire (anode) was placed in the receptor compartment. Samples were taken at periodic intervals and were analyzed by HPLC, using YMC RP 18 column. Mobile Phase was composed of monobasic sodium phosphate (10%) and Tris HCl buffer (90%). Flow rate was 1.5 ml/min and detection wavelength was 303 nm.

[2] = cited from earlier work

Q: Which results are given for CN(Cc1cnc2nc(N)nc(N)c2n1)c1ccc(C(=O)N[C@@H](CCC(=O)O)C(=O)O)cc1 [MTX, Methotrexate]?
A: delivery at 15 versus 20 mg/ml ([1]; 0.25 M buffer strength, 30 mins iontophoresis 0.4 mA/cm^2): not statistically different; amount of drug delivered, effect of MTX concentration 10 to 15 mg/ml ([1]; 0.25 M buffer strength, 30 mins iontophoresis 0.4 mA/cm^2, FIG. 2): increased; cumulative amount delivered, increase in current density from 0.05 to 0.5 mA ([1]; 10 min iontophoresis): did not show a statistically significant increase; cumulative amount of MTX delivered across hairless rat skin, effect of buffer ionic strength ([1]; 30 mins iontophoresis 0.4 mA/cm^2, buffer strengths 0.05-0.5 M, FIG. 1): increased with decrease in ionic strength of the buffer; delivery, increase in time of application from 10-120 mins ([1]; at 0.05 mA): did not show any enhanced delivery; maximal flux ([1]; buffer strength 0.25 M, drug concentration 15 mg/ml, across hairless rat skin): about 0.6 μg/cm^2-hr; cumulative amount of drug delivered versus model prediction ([1]; current density 0.4 mA/cm^2, ITP for 30 mins): in between the lower and upper 95% confidence level; cumulative amount of MTX delivered, effect of increase in current density and time of application ([1]; factorial design, 0.05-0.5 mA, 10-120 mins, 15 mg/ml MTX, phosphate buffer pH 7.4 0.25 M, FIG. 3, 4): also increased; charge at physiological pH [2]: negatively charged

From patent US20070248630A1, “PHARMACEUTICAL FORMULATIONS FOR IONTOPHORETIC METHOTREXATE DELIVERY” (priority 2006, published 2007)
